From patent publication US12589094B2, “Concomitant administration of glucocorticoid receptor modulator relacorilant and paclitaxel, a dual substrate of CYP2C8 and CYP3A4” (Corcept Therapeutics Incorporated, priority 2020, dated 2026) come the findings set out here.

Values joined by “and” are separate entries in the source; they are usually repeats but may differ in a detail not shown here. Identical values can stand only once. “Also recorded” adds a separate entry of the source.

Data set [1] concerns the target T1, CYP3A4 (Homo sapiens, UniProt P08684). Particulars: for AUC0-tz, Ratio of Geometric LSMs (%) / AUCinf, Ratio of Geometric LSMs (%) / Cmax, Ratio of Geometric LSMs (%): 100 * Test/Reference, midazolam with 350 mg relacorilant (Day 14) vs midazolam alone (Day 1).
Description: (§1) An open-label, crossover study was conducted in healthy subjects to determine the effect of relacorilant on the plasma exposure of midazolam, a known substrate of CYP3A4, and pioglitazone, a known substrate of CYP2C8. A single dose of midazolam 2.5 mg was administered alone and intensive pharmacokinetic (PK) samples were collected before dosing (0 hour) and at 0.25, 0.5, 1, 1.5, 2, 4, 6, 8, 12, 16, and 24 hours post-dose. […] Relacorilant 350 mg was then administered once a day for 9 consecutive days. On the tenth day of once-daily relacorilant dosing, a single dose of midazolam 2.5 mg was administered in combination with relacorilant 350 mg and intensive PK samples were again collected at pre-dose though 24 hours post-dose.
The target in data set [2] is T1, CYP3A4. Description: clinical. To be noted: in vivo, po, 2.5 mg.
Description: as §1
For data set [3], the target named is T2, CYP2C8 (Homo sapiens, UniProt P10632).
T2 sequence (P10632 1-490): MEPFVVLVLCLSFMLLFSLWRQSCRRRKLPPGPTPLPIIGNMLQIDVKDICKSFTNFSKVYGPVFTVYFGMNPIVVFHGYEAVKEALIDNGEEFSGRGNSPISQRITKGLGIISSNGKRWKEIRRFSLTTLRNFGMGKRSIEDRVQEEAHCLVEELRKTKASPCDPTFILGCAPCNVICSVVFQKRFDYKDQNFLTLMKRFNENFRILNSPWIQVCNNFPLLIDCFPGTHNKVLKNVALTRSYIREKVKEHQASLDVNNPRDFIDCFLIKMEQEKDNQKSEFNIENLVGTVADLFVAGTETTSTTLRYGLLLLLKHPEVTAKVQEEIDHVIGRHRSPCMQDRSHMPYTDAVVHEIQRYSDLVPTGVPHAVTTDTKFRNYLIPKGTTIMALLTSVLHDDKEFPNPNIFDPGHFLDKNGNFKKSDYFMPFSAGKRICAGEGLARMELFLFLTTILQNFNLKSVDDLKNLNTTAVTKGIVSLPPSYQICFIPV
Description: Clinical drug-drug interaction study in healthy volunteers: effect of relacorilant on plasma pioglitazone (CYP2C8 substrate). On the procedure: An open-label, crossover study was conducted in healthy subjects to determine the effect of relacorilant on the plasma exposure of midazolam, a known substrate of CYP3A4, and pioglitazone, a known substrate of CYP2C8. A single dose of midazolam 2.5 mg was administered alone and intensive pharmacokinetic (PK) samples were collected before dosing (0 hour) and at 0.25, 0.5, 1, 1.5, 2, 4, 6, 8, 12, 16, and 24 hours post-dose. On the following day, a single dose of 15 mg of pioglitazone was administered alone and intensive PK samples were collected before dosing (0 hour) and at 0.5, 1, 1.5, 2, 2.5, 3, 4, 6, 8, 12, 18, 24, 36, 48, 60, and 72 hours post-dose. Relacorilant 350 mg was then administered once a day for 9 consecutive days. On the tenth day of once-daily relacorilant dosing, a single dose of midazolam 2.5 mg was administered in combination with relacorilant 350 mg and intensive PK samples were again collected at pre-dose though 24 hours post-dose. On the following day, a single dose of 15 mg of pioglitazone was administered in combination with relacorilant 350 mg and intensive pharmacokinetic (PK) samples were again collected at pre-dose through 72 hours post-dose. The plasma concentrations of midazolam and its metabolite, 1-OH midazolam, and pioglitazone and its metabolite, pioglitazone M4 were evaluated by validated bioanalytical assays on each of dosing occasions of midazolam or pioglitazone.

Data set [4] can be described thus: Pharmacokinetics of nab-paclitaxel alone or with relacorilant in patients with advanced solid tumors (Study CORT125134-550). Format: in vivo, human. To be noted: cancer patients; same dose administered alone as comparison.
Description: The combination of relacorilant and nab-paclitaxel has been evaluated in patients with advanced solid tumors.
Data set [5] addresses T1, CYP3A4. Briefly: In vitro CYP inhibition assay, Assay 2 (5-CYP mix). Particulars: CYP3A4 expressed in E. coli, substrate midazolam, 10 min incubation, 37° C., pH 7.4. The format is in vitro ADME. Also on record: from tissue; host or cells: healthy human subjects, in vivo (endogenous enzyme).
Description: In a separate assay, isoforms for CYP1A2, CYP2C9, CYP2C19, CYP2D6, and CYP3A4 heterologously expressed in E. coli and obtained from Cypex as a custom made mixture of 5 isoforms. A selective and FDA accepted substrate for each isoform was present in the reaction at a concentration around its Km.
(§2) The CYP mix and a CYP substrate cocktail were added and the tubes warmed for 3 minutes whilst mixing on a BioShake IQ (37° C., 1500 rpm). NADPH (final concentration 1 mM) was added and the mixture was incubated for 10 minutes. Methanol containing an internal standard (1 μM tolbutamide) was then added to all samples, and these were mixed and placed at −20° C. for ≥1 hour to quench the reaction and allow protein to precipitate.
All samples were centrifuged (2500×g, 20 minutes, 4° C.). […] The plate was sealed with a pre-slit silicone mat and the metabolites were analyzed by LC-MS/MS. […]
In Assay 2, the final concentration of the 5-CYP mix was 32.5 pmol/ml for each of the enzymes evaluated (i.e., CYP1A2, CYP2C9, CYP2C19, CYP2D6, and CYP3A4). […]
In Assay 2, the CYP substrate cocktail comprised the following components: CYP1A2, tacrine; CYP2C9, diclofenac; CYP2C19, (S)mephenytoin; CYP2D6, bufuralol; CYP3A4, midazolam. The metabolites measured were: CYP1A2, 1-hydroxytacrine; CYP2C9, 4′-hydroxydiclofenac; CYP2C19, 4′-hydroxymephenytoin; CYP2D6, hydroxybufuralol; CYP3A4, 1′-hydroxymidazolam. […]
Data set [6] deals with T2, CYP2C8. Briefly: In vitro CYP inhibition assay, Assay 1 (3-CYP mix). The format is in vitro ADME. To be noted: CYP2C8 expressed in E. coli, substrate amodiaquine, 10 min incubation, 37° C., pH 7.4. On the set-up: from tissue; host or cells: healthy human subjects, in vivo (endogenous enzyme).
Description: Cytochrome P450 (CYP) isoforms CYP2B6, CYP2C8 and CYP3A5, heterologously expressed in E. coli, were obtained from Cypex and mixed to produce a 3-CYP mix. […] A selective and FDA accepted substrate for each isoform was present in the reaction at a concentration around its Km.
as §2
All samples were centrifuged (2500×g, 20 minutes, 4° C.). The supernatants were transferred to a fresh 96 well plate, compatible with an autosampler. The plate was sealed with a pre-slit silicone mat and the metabolites were analyzed by LC-MS/MS.
Control CYP inhibitors (IC50—appropriate concentration range, final assay concentration 1% DMSO) were added as a cocktail. […]
In Assay 1, the final concentration of the 3-CYP mix was 18 pmol/mL for CYP2B6 (where pmol is picomoles), 1 pmol/mL for CYP2C and 5 pmol/mL for CYP3A5. […] The metabolites measured were: CYP2B6, hydroxybupropion; CYP2C8, N-desethyl amodiaquine; CYP3A5, 1′-hydroxymidazolam. […]
[7] abbreviates: plasma, healthy subjects, single oral 2.5 mg midazolam hydrochloride alone, Day 1.
The mark [8] stands for this setting: plasma, healthy subjects, single oral 2.5 mg midazolam hydrochloride with 350 mg relacorilant, Day 14.
The mark [9] stands for this setting: 100 * Test/Reference, pioglitazone with 350 mg relacorilant (Day 15) vs pioglitazone alone (Day 2).

T1 sequence (P08684 whole entry): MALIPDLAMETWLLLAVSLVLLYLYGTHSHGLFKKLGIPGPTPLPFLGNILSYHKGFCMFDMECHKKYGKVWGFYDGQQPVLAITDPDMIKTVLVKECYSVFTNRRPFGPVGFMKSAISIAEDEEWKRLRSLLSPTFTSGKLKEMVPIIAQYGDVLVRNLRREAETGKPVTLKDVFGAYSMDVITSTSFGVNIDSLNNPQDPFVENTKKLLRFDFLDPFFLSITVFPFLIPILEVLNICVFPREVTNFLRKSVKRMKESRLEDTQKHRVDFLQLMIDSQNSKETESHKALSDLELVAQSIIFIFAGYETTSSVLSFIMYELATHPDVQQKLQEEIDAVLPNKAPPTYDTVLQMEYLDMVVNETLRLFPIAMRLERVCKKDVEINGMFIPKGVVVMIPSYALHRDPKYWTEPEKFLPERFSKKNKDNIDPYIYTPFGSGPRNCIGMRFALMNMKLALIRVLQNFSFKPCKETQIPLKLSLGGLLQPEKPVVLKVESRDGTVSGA

As to `OCc1ncc2n1-c1ccc(Cl)cc1C(c1ccccc1F)=NC2` [1-OH midazolam], on CYP3A4 [1], the “AUC0-tz, Ratio of Geometric LSMs (%)” value was 796.64%; the “AUCinf, Ratio of Geometric LSMs (%)” value came to 814.51%; the “Cmax, Ratio of Geometric LSMs (%)” value is given as 164.86%. In addition, at CYP3A4 [1] (setting [7]), the “AUC0-tz, Geometric LSM, Reference (Day 1) Treatment A” value amounted to 9.360 ng·h/mL; the “AUCinf, Geometric LSM, Reference (Day 1) Treatment A” value turned out to be 10.28 ng·h/mL; the “Cmax, Geometric LSM, Reference (Day 1) Treatment A” value is listed as 4.038 ng/mL. Moreover, at CYP3A4 [1] (setting [8]), the “AUC0-tz, Geometric LSM, Test (Day 14) Treatment D” value was determined as 74.56 ng·h/mL; the “AUCinf, Geometric LSM, Test (Day 14) Treatment D” value was 83.72 ng·h/mL; the “Cmax, Geometric LSM, Test (Day 14) Treatment D” value is 6.657 ng/mL.

Take `Cc1ncc2n1-c1ccc(Cl)cc1C(c1ccccc1F)=NC2` [Midazolam, midazolam]: at CYP3A4 [1], the “AUC0-tz, Ratio of Geometric LSMs (%)” value came out at 878.43%; the “AUCinf, Ratio of Geometric LSMs (%)” value came out at 892.81%; the “Cmax, Ratio of Geometric LSMs (%)” value amounted to 310.98%. Besides, the “increase in plasma exposure (AUCinf) when administered with relacorilant, relative to midazolam alone” value on CYP3A4 [1] (healthy subjects, once daily relacorilant 350 mg) was 8 fold and > 8 fold. On CYP3A4 [2], this molecule showed an AUC(0-inf) of 33 ng·h/mL, an AUC(0-t) of 30.9 ng·h/mL and a Cmax of 11.8 ng/mL.

For the molecule `CC(O)c1ccc(CCOc2ccc(CC3SC(=O)NC3=O)cc2)nc1` (stereo not drawn) [Pioglitazone M4], at CYP2C8 [3] (human, in vivo, po, 15 mg), the “AUC0-tz, Geometric LSM, Reference (Day 2) Treatment B” value was 10460 ng·h/mL; the “AUCinf, Geometric LSM, Reference (Day 2) Treatment B” value was found to be 12890 ng·h/mL; the “Cmax, Geometric LSM, Reference (Day 2) Treatment B” value stood at 237.3 ng/mL.

With `CCc1ccc(CCOc2ccc(CC3SC(=O)NC3=O)cc2)nc1` (stereo not drawn) [Pioglitazone, pioglitazone], on CYP2C8 [3] (setting [9]), the “AUC0-tz, Ratio of Geometric LSMs (%)” value is on record as 74.71%; the “AUCinf, Ratio of Geometric LSMs (%)” value came to 74.83%; the “Cmax, Ratio of Geometric LSMs (%)” value amounted to 77.82%. The “change in plasma exposure/concentration when administered with relacorilant” value on CYP2C8 [3] (healthy volunteers, once daily relacorilant 350 mg, pioglitazone 15 mg) was “no increase; also recorded: did not increase”. Moreover, at CYP2C8 [3] (human, plasma, po, 15 mg), the AUC(0-inf) turned out to be 5410 ng·h/mL, the AUC(0-t) is 5290 ng·h/mL and the Cmax came to 484 ng/mL.

As for `CC(=O)O[C@H]1C(=O)[C@@]2(C)[C@H]([C@H](OC(=O)c3ccccc3)[C@]3(O)C[C@H](OC(=O)[C@H](O)[C@@H](NC(=O)c4ccccc4)c4ccccc4)C(C)=C1C3(C)C)[C@]1(OC(C)=O)CO[C@@H]1C[C@@H]2O` [paclitaxel], the “increase in plasma levels/exposure (AUC) when co-administered with relacorilant, relative to alone” value in data set [4] is listed as “about 80%”.

What is called IC50 is the concentration that inhibits the measured activity by half. A lower IC50 goes with greater potency. With `Cn1cc(S(=O)(=O)N2CCC3=Cc4c(cnn4-c4ccc(F)cc4)C[C@]3(C(=O)c3cc(C(F)(F)F)ccn3)C2)cn1` [relacorilant, (R)-(1-(4-fluorophenyl)-6-((1-methyl-1H-pyrazol-4-yl)sulfonyl)-4,4a,5,6,7,8-hexahydro-1H-pyrazolo[3,4-g]isoquinolin-4a-yl)(4-(trifluoromethyl)pyridine-2-yl)methanone], the results for the half-maximal inhibitory concentration (IC50) on CYP3A4 [5] and at CYP2C8 [6] were 1320 nM and 210 nM, respectively. At CYP2C8 [3] (healthy subjects, once daily relacorilant 350 mg, probe pioglitazone), the “inhibition of CYP2C8 in vivo” value is listed as “does not inhibit”.
